Reference: PubChem BioAssay (NCI)
Values joined by “and” are separate entries in the source; they are usually repeats but may differ in a detail not shown here. Identical values can stand only once.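 Results reflect a 48-hour exposure of cells in 96-well plates to compound at five concentrations. GI50 is the concentration that inhibits growth by half. TGI marks complete inhibition of growth.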

Assays:
Test in all cases: NCI tumour cell line growth inhibition, 48 h
SNB-78 CNS = tested on: SNB-78 CNS
MDA-MB-231 breast = tested on: MDA-MB-231 breast
HOP-18 NSCLC = tested on: HOP-18 NSCLC
KM20L2 colon = tested on: KM20L2 colon
SN12K1 renal = tested on: SN12K1 renal
P388 leukemia = tested on: P388 leukemia
DMS 114 small cell lung = tested on: DMS 114 small cell lung
DMS 273 small cell lung = tested on: DMS 273 small cell lung
MDA-N = tested on: MDA-N
P388/ADR leukemia = tested on: P388/ADR leukemia
RXF-631 renal = tested on: RXF-631 renal

SMILES | TGI (SNB-78 CNS) | GI50 (MDA-MB-231 breast) | TGI (MDA-MB-231 breast) | GI50 (HOP-18 NSCLC) | TGI (HOP-18 NSCLC) | TGI (KM20L2 colon) | TGI (SN12K1 renal) | TGI (P388 leukemia) | GI50 (DMS 114 small cell lung) | TGI (DMS 114 small cell lung) | TGI (DMS 273 small cell lung) | GI50 (MDA-N) | TGI (MDA-N) | TGI (P388/ADR leukemia) | TGI (RXF-631 renal) | GI50 (SNB-78 CNS) | GI50 (KM20L2 colon) | GI50 (DMS 273 small cell lung)
O=C1NC(=O)C2C3C=CC(C12)C1C2C(=O)NC(=O)C2C31 (stereo not drawn) | 250 µM | > 801 µM | > 1000 µM | > 63.3 µM | 98.8 µM and 250 µM | 250 µM | 250 µM | 228 µM | > 60.5 µM | 233 µM | 250 µM | 193 µM | 250 µM and > 1000 µM | 250 µM |  |  |  | 
C=C(C)c1nc(Oc2ccccc2)nc(Oc2ccccc2)n1 | 26.8 µM |  | 28.9 µM |  | 30.2 µM | 26.7 µM | 8.88 µM | 3.63 µM |  | 8.79 µM | 19.7 µM |  | 14.8 µM | 2.7 µM | 13.5 µM |  |  | 
COc1nc(N)nc2nc[nH]c12 | 500 µM and 800 µM | 641 µM | 500 µM and > 1000 µM | 641 µM | 499 µM and 800 µM | > 800 µM | 500 µM | 500 µM | > 800 µM | 500 µM and > 800 µM | 500 µM and > 800 µM | 760 µM | > 1000 µM | 500 µM | 800 µM | 684 µM | > 800 µM | > 800 µM
